Tests used:
AAK1 [1] = target: T1, AAK1 (Homo sapiens, UniProt Q2M2I8); assay: P81 filter plate assay; type: biochemical; conditions: full-length human AAK1, Mu2 substrate, 33P-ATP
T1 construct: NP_055726.2
Procedure, shortened: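 Full-length human AAK1 (0.2 nM, 2×) was pre-incubated 10 min at RT with compounds (top concentration 96 μM in the dilution plate), then reacted 1 h at RT with full-length human Mu2 (0.2 μM, 2×), cold ATP (2 μM, 2×) and ³³P-ATP. Reactions were stopped with phosphoric acid and captured on P81 filters for scintillation counting.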

AAK1 [2] = target: T1, AAK1; assay: HEK281 cell-based assay (CBA); conditions: HEK293F cells transfected with full length human AAK1 and AP2M1; phospho-mu2 Western blot; 3 hours incubation
Procedure, shortened: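 HEK293F cells co-transfected with full-length human AAK1/HA and Flag-AP2M1 (mu2), then treated in suspension with compounds (5 concentrations, 3-fold steps) in DMEM+0.5% FBS for 3 hours at 37° C. Phospho-mu2 and total mu2 (anti-Flag) assessed by Western blot.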

T1 sequence (Q2M2I8 1-863 isoform Q2M2I8-2): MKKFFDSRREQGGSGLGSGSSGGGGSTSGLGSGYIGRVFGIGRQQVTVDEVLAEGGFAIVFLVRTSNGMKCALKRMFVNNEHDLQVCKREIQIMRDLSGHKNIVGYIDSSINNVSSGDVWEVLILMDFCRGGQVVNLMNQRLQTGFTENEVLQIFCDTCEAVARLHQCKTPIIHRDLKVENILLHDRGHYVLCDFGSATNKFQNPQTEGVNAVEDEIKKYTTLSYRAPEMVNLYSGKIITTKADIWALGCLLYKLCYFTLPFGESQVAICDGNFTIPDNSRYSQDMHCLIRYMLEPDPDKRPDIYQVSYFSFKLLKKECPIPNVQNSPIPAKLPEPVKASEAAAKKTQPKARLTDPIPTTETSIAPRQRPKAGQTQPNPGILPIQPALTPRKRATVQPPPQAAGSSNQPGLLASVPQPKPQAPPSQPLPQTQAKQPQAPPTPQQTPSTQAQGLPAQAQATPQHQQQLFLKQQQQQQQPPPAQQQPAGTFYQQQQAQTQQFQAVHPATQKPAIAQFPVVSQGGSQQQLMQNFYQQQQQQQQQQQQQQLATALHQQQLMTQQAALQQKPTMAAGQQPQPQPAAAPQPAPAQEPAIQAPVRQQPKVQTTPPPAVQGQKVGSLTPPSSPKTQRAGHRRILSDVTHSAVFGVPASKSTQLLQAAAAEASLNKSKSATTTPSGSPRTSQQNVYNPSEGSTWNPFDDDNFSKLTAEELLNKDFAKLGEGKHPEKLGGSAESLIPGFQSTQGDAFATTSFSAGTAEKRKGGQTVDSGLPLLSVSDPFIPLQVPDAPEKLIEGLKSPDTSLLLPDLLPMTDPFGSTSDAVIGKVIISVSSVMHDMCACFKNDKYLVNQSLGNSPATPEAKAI

melting point | IC50 (AAK1 [1]) | IC50 (AAK1 [2]) | Structure (SMILES)
140 to 141 °C | – | – | CN(CCNc1ccn2ncc(-c3cccs3)c2n1)C(=O)OC(C)(C)C [Example 5.6.4, Methyl-[2-(3-thiophen-2-yl-pyrazolo[1,5-a]pyrimidin-5-ylamino)-ethyl]-carbamic acid tert-butyl ester]
– | ≤ 0.01 µM | ≤ 0.01 µM | [2H]C([2H])([2H])Oc1ncccc1-c1cnn2ccc(N3CCN(C(=O)OC(C)(C)C)CC3)nc12 [tert-butyl 4-(3-(2-d3-methoxypyridin-3-yl)pyrazolo[1,5-a]pyrimidin-5-yl)piperazine-1-carboxylate]
– | ≤ 0.01 µM | ≤ 0.01 µM | COc1ncccc1-c1cnn2ccc(N3CCN(C(=O)C4(N)CCCC4)CC3)nc12 [(1-aminocyclopentyl)(4-(3-(2-methoxypyridin-3-yl)pyrazolo[1,5-a]pyrimidin-5-yl)piperazin-1-yl)methanone]
– | ≤ 0.01 µM | ≤ 0.01 µM | COc1ncccc1-c1cnn2ccc(NC[C@@H]3CCCN3C(=O)OC(C)C)nc12 [(S)-isopropyl 2-(((3-(2-methoxypyridin-3-yl)pyrazolo[1,5-a]pyrimidin-5-yl)amino)methyl)pyrrolidine-1-carboxylate]
– | ≤ 0.01 µM | ≤ 0.01 µM | COc1ncccc1-c1cnn2ccc(N3CC[C@H](N(C)C(=O)[C@@H](N)CC(C)C)C3)nc12 [(S)-2-amino-N-((S)-1-(3-(2-methoxypyridin-3-yl)pyrazolo[1,5-a]pyrimidin-5-yl)pyrrolidin-3-yl)-N,4-dimethylpentanamide]
– | ≤ 0.01 µM | ≤ 0.1 µM | COc1ncccc1-c1cnn2ccc(N3CCN(C(=O)C4(N)CCOC4)CC3)nc12 (stereo not drawn) [(3-aminotetrahydrofuran-3-yl)(4-(3-(2-methoxypyridin-3-yl)pyrazolo[1,5-a]pyrimidin-5-yl)piperazin-1-yl)methanone]
– | ≤ 0.01 µM | ≤ 0.01 µM | COc1ncc(C)cc1-c1cnn2ccc(N3CCN(C(=O)OC(C)C)CC3)nc12 [isopropyl 4-(3-(2-methoxy-5-methylpyridin-3-yl)pyrazolo[1,5-a]pyrimidin-5-yl)piperazine-1-carboxylate]
– | ≤ 0.01 µM | ≤ 0.1 µM | COc1nc(C)ccc1-c1cnn2ccc(N3CC[C@H](N(C)C(=O)OC(C)C)C3)nc12 [(S)-isopropyl (1-(3-(2-d3-methoxy-6-methylpyridin-3-yl)pyrazolo[1,5-a]pyrimidin-5-yl)pyrrolidin-3-yl)(methyl)carbamate]
– | ≤ 0.01 µM | ≤ 0.1 µM | COc1ccc(F)cc1-c1cnn2ccc(N3CC[C@H](N(C)C(=O)OC(C)C)C3)nc12 [(S)-isopropyl (1-(3-(5-fluoro-2-methoxyphenyl)pyrazolo[1,5-a]pyrimidin-5-yl)pyrrolidin-3-yl)(methyl)carbamate]
– | ≤ 0.01 µM | ≤ 0.01 µM | CC(C)OC(=O)N1CCN(c2ccn3ncc(-c4ccc(CN)cc4)c3n2)CC1 [isopropyl 4-(3-(4-(aminomethyl)phenyl)pyrazolo[1,5-a]pyrimidin-5-yl)piperazine-1-carboxylate]
– | ≤ 0.01 µM | ≤ 0.01 µM | COc1ncccc1-c1cnn2ccc(N3CCN(C(=O)O[C@H]4CCOC4)CC3)nc12 [(S)-tetrahydrofuran-3-yl 4-(3-(2-methoxypyridin-3-yl)pyrazolo[1,5-a]pyrimidin-5-yl)piperazine-1-carboxylate]
– | ≤ 0.01 µM | ≤ 0.01 µM | CCOC(=O)N1CCC[C@H]1CNc1ccn2ncc(-c3ccccc3OC)c2n1 [(S)-ethyl 2-(((3-(2-methoxyphenyl)pyrazolo[1,5-a]pyrimidin-5-yl)amino)methyl)pyrrolidine-1-carboxylate]
– | ≤ 0.01 µM | ≤ 0.1 µM | COc1cc(C)ccc1-c1cnn2ccc(N3CCN(C(=O)OC(C)C)CC3)nc12 [isopropyl 4-(3-(2-methoxy-4-methylphenyl)pyrazolo[1,5-a]pyrimidin-5-yl)piperazine-1-carboxylate]
– | ≤ 0.01 µM | ≤ 0.1 µM | CCCOC(=O)N1CCN(c2ccn3ncc(-c4cccnc4OC)c3n2)CC1 [propyl 4-(3-(2-methoxypyridin-3-yl)pyrazolo[1,5-a]pyrimidin-5-yl)piperazine-1-carboxylate]

Source: patent publication US9403832B2, “Pyrazolo[1,5-a]pyrimidine-based compounds, compositions comprising them, and methods of their use” (Lexicon Pharmaceuticals, Inc., priority 2012, dated 2016)
